Measurements: patent US7488758B2 (Teva Pharmaceutical Fine Chemicals, S.r.l., priority 2004, dated 2009)
Read-outs that look alike come from different tables or passages of the source.

Conditions: for water content: after exposure at about 100% relative humidity for one week, hydrochloride; for water absorption, outcome in words: one-week exposure at 100% relative humidity; for LOD (%) (water content by TGA) / Polymorph by XRD: one week exposure
Method: After each exposure the water content was determined by Thermal Gravimetric Analysis (TGA) and reported as loss on drying (LOD) as a weight percentage and the crystal structure was determined by X-ray Diffraction (XRD).
The X-Ray diffraction (XRD) analysis was conducted using an ARL X-Ray powder diffractometer (model X'TRA-030) equipped with a Peltier detector, round standard aluminum sample holder with round zero background, and quartz plate. The scanning parameters were from a range of about 2-40 degree two θ (±0.2 degrees) and a continuous scan at a rate of about 3 degrees/min.
Thermal Gravimetric Analysis (TGA) was conducted using a Mettler Toledo TGA/SDTA 851^e using a sample weight of about 7-15 mg, a heating rate of about 10° C. min. under a N2 stream at a N2 flow rate of about 50 ml/min. The samples were scanned at a range between about 30° C. to about 250° C.

| SMILES | water content | water absorption, outcome in words | LOD (%) (water content by TGA) (RH 0%) | LOD (%) (water content by TGA) (RH 20%) | LOD (%) (water content by TGA) (RH 40%) | LOD (%) (water content by TGA) (RH 60%) | LOD (%) (water content by TGA) (RH 80%) | Polymorph by XRD (RH 80%) | LOD (%) (water content by TGA) (RH 100%) | Polymorph by XRD (RH 100%) |
| --- | --- | --- | --- | --- | --- | --- | --- | --- | --- | --- |
| CC(C)(C)NC[C@H](O)c1ccc(O)c(CO)c1.Cl [Polymorph A, (R)-α^1-[[(1,1-dimethylethyl)amino]methyl]-4-hydroxy-1,3-benzenedimethanol hydrochloride, reference compound] | about 34% | absorbed sufficient water to dissolve the polymorph | – | – | – | – | – | – | – | – |
| CC(C)(C)NC[C@H](O)c1ccc(O)c(CO)c1.Cl [Polymorph B, (R)-α^1-[[(1,1-dimethylethyl)amino]methyl]-4-hydroxy-1,3-benzenedimethanol hydrochloride] | about 36% | absorbed sufficient water to dissolve the polymorph | 0.21 | 0.25 | 0.25 | 0.30 | 0.48 | A >> B | 36.0 | only Polymorph A was detected |
